Measurements from patent US20240417747A1 (priority 2021, published 2024).
Entries after “also recorded” stand apart in the source; their conditions may differ. Where a name gives a salt, the structure may show the parent alone. Read-outs that look alike come from different tables or passages of the source.

Assays:
[1] = tested on: C. sinensis protoplast cells; assay type: cell-based, Citrus sinensis
[2] = tested on: HLB positive C. sinensis 'Valencia' trees; assay type: in vivo, Citrus sinensis; conditions: for H2O2 concentration in exudates of phloem-enriched bark tissues / cell death (ion leakage) in exudates of phloem-enriched bark tissues: weekly foliar spray, six weeks
[3] = tested on: CLas-positive 5-year-old C. sinensis trees; assay type: in vivo, Citrus sinensis; conditions: 7 days post trunk injection of streptomycin
[4] = tested on: CLas-positive stems of Valencia sweet orange; conditions: branches soaked in DPI 25 μM, 48 h, vs water
Arabidopsis = conditions: cited from earlier work
[5] = tested on: immortalized rat embryo fibroblasts; conditions: cited from earlier work
[6] = tested on: ROS related genes in C. sinensis protoplast cells; assay type: cell-based, Citrus sinensis; conditions: GA 5 mg/L, 1.8 mM H2O2, 6 h
[7] = tested on: HLB positive C. sinensis 'Valencia' and 'Vernia'; assay type: in vivo, Citrus sinensis
[8] = uric acid 1.8 mM, rutin 0.6 mM, listed as Uric acid
[9] = 6-year-old 'Valencia' and 'Vernia', eight months after GA application
[10] = GA 1,247 ppm foliar spray, 8 months after application
[11] = GA 5 mg/L foliar spray weekly for six weeks
[12] = GA 25 mg/L foliar spray weekly for six weeks

O=c1[nH]c(=O)c2[nH]c(=O)[nH]c2[nH]1 [uric acid]
H2O2 concentration ([1]; addition of uric acid 0.2 mM (text cites FIG. 5C)): reduced
cell death of protoplast cells caused by H2O2 ([1]; addition of uric acid 0.2 mM, 24 h): reduced
HLB symptoms compared with before treatment ([2]; six weeks after first weekly foliar spray, uric acid 1.8 mM, rutin 0.6 mM, GA): significantly reduced
H2O2 concentration in exudates of phloem-enriched bark tissues ([2]; uric acid 1.8 mM, rutin 0.6 mM): reduced
cell death (ion leakage) in exudates of phloem-enriched bark tissues ([2]; uric acid 1.8 mM, rutin 0.6 mM): reduced
H2O2 concentration in exudates of phloem-enriched bark tissues [2, 8]: reduce
cell death (ion leakage) in exudates of phloem-enriched bark tissues [2, 8]: reduce

[H]/N=C(/N)N[C@H]1[C@H](O)[C@@H](O)[C@H](O[C@@H]2O[C@@H](C)[C@](O)(C=O)[C@H]2O[C@@H]2O[C@@H](CO)[C@H](O)[C@@H](O)[C@@H]2NC)[C@@H](N/C(N)=N\[H])[C@@H]1O [streptomycin, streptomycin sulfate]
H2O2 content in the phloem tissues [3]: significantly reduced
ion leakage in the phloem tissues [3]: significantly reduced
CLas titers ([3]; phloem tissues): significantly reduced

c1ccc2c(c1)[I+]c1ccccc1-2 [DPI, diphenyleneiodonium]
ROS levels (H2O2 concentration) in phloem-enriched bark tissues of CLas-positive stems [4]: reduced

OO [H2O2]
cell death of C. sinensis protoplast cells ([1]; H2O2 0.6 mmol/L or lower, 24 h): not
cell death of C. sinensis protoplast cells ([1]; H2O2 1.8 mmol/L, 24 h): induced cell death
viability of protoplast cells (FDA staining) ([1]; different concentrations of H2O2, 24 h): kills
concentration inhibiting growth of plants (Arabidopsis): 1 mM
concentration inducing necrosis [5]: 700 µmol/L

C=C1C[C@]23C[C@@]1(O)CC[C@H]2[C@@]12C=C[C@H](O)[C@@](C)(C(=O)O1)[C@H]2[C@@H]3C(=O)O [GA, Gibberellic acid]
death of C. sinensis protoplast cells caused by 1.8 mM H2O2 ([1]; GA 5 mg/L, 24 h): suppresses
expression of RbohD [6]: inhibited
expression of genes encoding H2O2 scavenging enzymes catalases, ascorbate peroxidases and glutathione peroxidases [6]: induced
plant growth: canopy volume [7, 9]: significantly promoted
plant growth: tree height [7, 9]: significantly promoted
plant growth: trunk diameter [7, 9]: significantly promoted
HLB disease symptoms [7, 10]: significantly reduced; also recorded: suppresses
percentage of symptomatic leaves (ratio symptomatic leaves vs total leaves) [7, 10]: significantly reduced
HLB disease incidence (infected trees) ([7]; in vivo): 100%
H2O2 caused by CLas (phloem exudates) [2, 11]: reduced
ion leakage caused by CLas (phloem exudates) [2, 11]: reduced
H2O2 caused by CLas (phloem exudates) [2, 12]: reduced
ion leakage caused by CLas (phloem exudates) [2, 12]: reduced
growth as indicated by new flushes ([2]; six weeks after foliar spray, vs water control): promoted growth
